Values belong to the compound of their own block, whether it stands above or below them.
What was measured:
Format in all cases: physicochemical
[1] = LNP size and polydispersity index (PDI) by dynamic light scattering (DLS)
[2] = LNP Zeta potential measured using a Zetasizer (Malvern); details: for Zeta potential: hEPO mRNA; for Zeta potential (mV): LNP with hEPO mRNA, N:P ratio 6
[3] = Encapsulation efficiency (EE %) by fluorescence based Ribogreen assay
[4] = Table 1, LNP lipid:DSPC:Cholesterol:DMG-PEG2k 50:10:38.5:1.5 mol %, hEPO mRNA, N:P 6
[5] = Table 3, LNP 50:10:38.5:1.5 mol %, hEPO mRNA, N:P 6
[6] = Table 3, LNP lipid:DSPC:Cholesterol:DMG-PEG2k 50:10:38.5:1.5 mol %, hEPO mRNA, N:P 6
[7] = Table 4, LNP 40:10:48.5:1.5 mol %, hEPO mRNA, N:P 6
[8] = Table 4, LNP 40:10:48.5:1.5 mol %, hEPO mRNA, N:P 9
[9] = Table 4, LNP 40:10:48.5:1.5 mol %, hEPO mRNA, N:P 12
[10] = Table 4, LNP 50:10:38.5:1.5 mol %, hEPO mRNA, N:P 6
[11] = Table 4, LNP 50:10:38.5:1.5 mol %, hEPO mRNA, N:P 9
[12] = Table 4, LNP 50:10:38.5:1.5 mol %, hEPO mRNA, N:P 12
[13] = Table 4, LNP 60:0:38.5:1.5 mol %, hEPO mRNA, N:P 6
[14] = Table 4, LNP 60:0:38.5:1.5 mol %, hEPO mRNA, N:P 9
[15] = Table 4, LNP 60:0:38.5:1.5 mol %, hEPO mRNA, N:P 12
[16] = Table 1, LNP lipid:DSPC:Cholesterol:DMG-PEG2k 50:10:38.5:1.5 mol %, N:P 6
[17] = Table 11, LNP with hEPO mRNA, Lipid:DSPC:Cholesterol:DMG-PEG2k 50:10:38.5:1.5 mol % (ALC-0315: 46.3:9.4:42.7:1.6), N:P ratio 6, HEPES/sodium chloride/sucrose buffer, stored at −80C
[18] = Table 11, Lipid:DSPC:Cholesterol:DMG-PEG2k 50:10:38.5:1.5 mol % (ALC-0315: 46.3:9.4:42.7:1.6), HEPES/sodium chloride/sucrose buffer, stored at −80C
[19] = Table 8, LNP 50:10:38.5:1.5 mol %, hEPO mRNA, N:P 6
[20] = Table 9, LNP 50:10:38.5:1.5 mol %, hEPO mRNA, N:P 6
[21] = Table 5, LNP 50:10:38.5:1.5 mol %, hEPO mRNA, N:P 6
[22] = Table 5, LNP Lipid:DSPC:Cholesterol:DMG-PEG2k 50:10:38.5:1.5 mol %, hEPO mRNA, N:P 6
[23] = Table 5, LNP 50:10:38.5:1.5 mol %, N:P 6
[24] = Table 10, LNP with hEPO mRNA, Lipid:DSPC:Cholesterol:DMG-PEG2k 50:10:38.5:1.5 mol %, N:P ratio 6, DLS
[25] = Table 5, LNP 60:0:38.5:1.5 mol %, hEPO mRNA, N:P 6

Compound: CCCCCCCCC(CCCCCC)C(=O)OCCN(CCOC(=O)C(CCCCCC)CCCCCCCC)C(=O)C(N)Cc1ccccc1 (stereo not drawn) [Compound 117]
PDI [1, 4]: 0.07 | Size [1, 4]: 61.6 nm | PDI [1, 5]: 0.071 | Size [1, 6]: 70.6 nm | PDI [1, 7]: 0.204 | Size [1, 7]: 56.4 nm | PDI [1, 8]: 0.354 | Size [1, 8]: 67.8 nm | PDI [1, 9]: 0.119 | Size [1, 9]: 75.7 nm | PDI [1, 10]: 0.134 | PDI [1, 11]: 0.365 | Size [1, 11]: 65.3 nm | PDI [1, 12]: 0.515 | Size [1, 12]: 67.8 nm | PDI [1, 13]: 0.089 | Size [1, 13]: 125 nm | PDI [1, 14]: 0.018 | Size [1, 14]: 123 nm | PDI [1, 15]: 0.263 | Size [1, 15]: 55 nm | Size ([1]; Table 4, LNP Lipid:DSPC:Cholesterol:DMG-PEG2k 50:10:38.5:1.5 mol %, hEPO mRNA, N:P 6): 62.2 nm | Zeta potential [2, 16]: −5.265 mV | Zeta potential ([2]; Table 4, LNP 40:10:48.5:1.5 mol %, N:P 6): −0.6716 mV | Zeta potential ([2]; Table 4, LNP 40:10:48.5:1.5 mol %, N:P 9): −1.95 mV | Zeta potential ([2]; Table 4, LNP 40:10:48.5:1.5 mol %, N:P 12): −3.302 mV | Zeta potential ([2]; Table 4, LNP 50:10:38.5:1.5 mol %, N:P 6): −4.369 mV | Zeta potential ([2]; Table 4, LNP 50:10:38.5:1.5 mol %, N:P 9): −2.051 mV | Zeta potential ([2]; Table 4, LNP 50:10:38.5:1.5 mol %, N:P 12): −4.408 mV | Zeta potential ([2]; Table 4, LNP 60:0:38.5:1.5 mol %, N:P 6): −5.393 mV | Zeta potential ([2]; Table 4, LNP 60:0:38.5:1.5 mol %, N:P 9): −5.043 mV | Zeta potential ([2]; Table 4, LNP 60:0:38.5:1.5 mol %, N:P 12): −5.125 mV | Encapsulation Efficiency % [3, 4]: 96.7% | Encapsulation Efficiency % [3, 5]: 95.1% | Encapsulation Efficiency % [3, 7]: 87.7% | Encapsulation Efficiency % [3, 8]: 98% | Encapsulation Efficiency % [3, 9]: 98.3% | Encapsulation Efficiency % [3, 10]: 96.3% | Encapsulation Efficiency % [3, 11]: 98.6% | Encapsulation Efficiency % [3, 12]: 98.2% | Encapsulation Efficiency % [3, 13]: 90.2% | Encapsulation Efficiency % [3, 14]: 92.3% | Encapsulation Efficiency % [3, 15]: 94.8%

Compound: CCCCCCCCC(CCCCCC)C(=O)OCCN(CCOC(=O)C(CCCCCC)CCCCCCCC)C(=O)CCCN(C)CC.Cl (stereo not drawn) [Compound 936]
PDI [1, 19]: 0.175 | Size ([1]; Table 8, LNP Lipid:DSPC:Cholesterol:DMG-PEG2k 50:10:38.5:1.5 mol %, hEPO mRNA, N:P 6): 110.1 nm | Zeta potential ([2]; Table 8, LNP 50:10:38.5:1.5 mol %, N:P 6): −10.7 mV | Encapsulation Efficiency % [3, 19]: 99.9%

Compound: CCCCCCCCC(CCCCCC)C(=O)OCCN(CCOC(=O)C(CCCCCC)CCCCCCCC)C(=O)CN(CC)CC.Cl (stereo not drawn) [Compound 967]
PDI [1, 20]: 0.101 | Size ([1]; Table 9, LNP Lipid:DSPC:Cholesterol:DMG-PEG2k 50:10:38.5:1.5 mol %, hEPO mRNA, N:P 6): 82.1 nm | Zeta potential ([2]; Table 9, LNP 50:10:38.5:1.5 mol %, N:P 6): −21.99 mV | Encapsulation Efficiency % [3, 20]: 97.9%

Compound: CCCCCCCCCC(=O)OCCN(CCOC(=O)CCCCCCCCC)C(=O)C(N)CCCCN (stereo not drawn) [Compound 122]
PDI [1, 4]: 0.259 | Size [1, 4]: 71.8 nm | Zeta potential [2, 16]: 6.541 mV | Encapsulation Efficiency % [3, 4]: 94.2%

Compound: CCCCCC(CCCCC)C(=O)OCCN(CCOC(=O)C(CCCCC)CCCCC)C(=O)CN [Compound 601]
PDI [1, 21]: 0.185 | Size [1, 22]: 83.8 nm | Zeta potential [2, 23]: −4.878 mV | Encapsulation Efficiency % [3, 21]: 99.8%

Compound: CCCCCCCC/C=C\CCCCCCCC(=O)OCCN(CCOC(=O)C(CCCCCC)CCCCCCCC)C(=O)CCN1CCCCC1 (stereo not drawn) [Compound 917h]
PDI [1, 24]: 0.137 | Size (nm) [1, 24]: 89.6 nm | Zeta potential (mV) ([2]; Table 10, Lipid:DSPC:Cholesterol:DMG-PEG2k 50:10:38.5:1.5 mol %): −8.2 mV | Encapsulation Efficiency % ([3]; Table 10, LNP with hEPO mRNA, Lipid:DSPC:Cholesterol:DMG-PEG2k 50:10:38.5:1.5 mol %, N:P ratio 6, Ribogreen assay): 91.4%

Compound: CCCCCCCCC(CCCCCC)C(=O)OCCN(CCOC(=O)C(CCCCCC)CCCCCCCC)C(=O)CNCCO (stereo not drawn) [Compound 305]
PDI [1, 5]: 0.051 | Size [1, 6]: 53.3 nm | PDI [1, 21]: 0.05 | PDI [1, 25]: 0.098 | Size [1, 25]: 52.7 nm | Size [1, 22]: 59.3 nm | Zeta potential [2, 23]: −0.5189 mV | Zeta potential ([2]; Table 5, LNP 60:0:38.5:1.5 mol %, N:P 6): −2.027 mV | Encapsulation Efficiency % [3, 5]: 99.3% | Encapsulation Efficiency % [3, 21]: 99.5% | Encapsulation Efficiency % [3, 25]: 99.5%

The remaining lines, values ahead:

PDI [1, 17]: 0.110 | Size (nm) [1, 17]: 70.5 nm | Zeta potential (mV) [2, 18]: 0.8 mV | Encapsulation Efficiency % [3, 17]: 99.4%
Compound: CCCCCCCCC(CCCCCC)C(=O)OCCN(CCOC(=O)C(CCCCCC)CCCCCCCC)C(=O)C(C)CCNCC.Cl (stereo not drawn) [Compound 987e]

PDI [1, 17]: 0.097 | Size (nm) [1, 17]: 70.5 nm | Zeta potential (mV) [2, 18]: −3.5 mV | Encapsulation Efficiency % [3, 17]: 95.4%
Compound: CCCCCCCCC(CCCCCC)C(=O)OCCN(CCOC(=O)C(CCCCCC)CCCCCCCC)C(=O)C(C)CCN(CC)CC.Cl (stereo not drawn) [Compound 987g]

PDI [1, 17]: 0.066 | Size (nm) [1, 17]: 72.0 nm | Zeta potential (mV) [2, 18]: −6.6 mV | Encapsulation Efficiency % [3, 17]: 98.0%
Compound: CCCCCCCCCC(CCCCCCCCC)C(=O)OCCN(CCOC(=O)C(CCCCCCCCC)CCCCCCCCC)C(=O)C(C)CCN(C)C.Cl (stereo not drawn) [Compound 987c]

PDI [1, 17]: 0.051 | Size (nm) [1, 17]: 76.4 nm | Zeta potential (mV) [2, 18]: −2.9 mV | Encapsulation Efficiency % [3, 17]: 95.9%
Compound: CCCCCCCCC(CCCCCC)C(=O)OCCN(CCOC(=O)C(CCCCCC)CCCCCCCC)C(=O)C(C)CCN1CCCC1.Cl (stereo not drawn) [Compound 987l]

— patent publication US20250268826A1, “IONIZABLE LIPIDOID COMPOSITIONS AND THERAPEUTIC USES THEREOF” (Flagship Pioneering Innovations VII, LLC, priority 2023, published 2025)
